Here are results for 59 molecules from US20050261290A1, “Novel compounds of proline and morpholine derivatives” (priority 2004, published 2005).

This test concerns the target human 11b-hsd-1 (Homo sapiens, UniProt P28845). Briefly: Inhibition constant Ki of human 11b-hsd-1 (3H-cortisone to 3H-cortisol conversion, HPLC). The class given is biochemical. To be noted: for inhibition at 0.1 µM: 0.1 μM compound; for Ki: apparent Ki, read-out: Ki app.

human 11b-hsd-1, sequence (P28845 whole entry): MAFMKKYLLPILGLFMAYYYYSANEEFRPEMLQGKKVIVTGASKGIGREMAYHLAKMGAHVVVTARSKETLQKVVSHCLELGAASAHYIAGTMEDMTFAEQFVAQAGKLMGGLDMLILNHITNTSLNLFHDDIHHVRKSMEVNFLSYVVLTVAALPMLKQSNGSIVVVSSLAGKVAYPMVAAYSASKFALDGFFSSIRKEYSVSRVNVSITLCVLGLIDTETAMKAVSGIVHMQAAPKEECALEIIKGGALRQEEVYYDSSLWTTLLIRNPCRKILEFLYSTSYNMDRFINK

What is called inhibition is the share of the control response that was lost under treatment. In the case of `N#Cc1ccccc1CN1CCOC[C@@H]1C(=O)N[C@@H]1CCc2ccccc21` [Example 305], at 0.1 µM the inhibition was 98.7% and the Ki came to 3.4 nM. With `N#Cc1ccc(CN2CCOC[C@@H]2C(=O)NC2CCCCC2)cc1` [Example 306], the inhibition at 0.1 µM came out at 100% and the Ki is 4.9 nM. Turning to `CC(C)CN1CCOC[C@@H]1C(=O)NC1Cc2ccccc2C1` [Example 307], the inhibition at 0.1 µM was determined as 100% and the Ki stood at 12.8 nM. For `CC(C)CN1CCOC[C@@H]1C(=O)N[C@@H]1CCc2ccccc21` [Example 308] the same measures were 97.7% and 5.71 nM.

`C[C@@H](NC(=O)[C@H]1COCCN1CC1CCCC1)c1ccccc1` [Example 309]: testing at 0.1 µM gave an inhibition of 86.1% and the Ki is 32 nM.

As for `O=C(N[C@H]1c2ccccc2C[C@H]1O)[C@H]1COCCN1CC1CCCC1` [Example 310], the inhibition at 0.1 µM amounted to 92% and the Ki stood at 29.5 nM. In the same order, the values of `CN(Cc1ccccc1Cl)C(=O)[C@H]1COCCN1CC1CCCC1` [Example 312] are 95.3% and 14 nM. Consider `O=C(N[C@@H]1CCCc2ccccc21)[C@H]1COCCN1Cc1ccccc1` [Example 313], for which the inhibition at 0.1 µM was determined as 97% and the Ki stood at 4.89 nM. `C[C@@H](NC(=O)[C@H]1COCCN1Cc1ccccc1)c1ccc(Cl)cc1` [Example 314]: the inhibition at 0.1 µM was found to be 94.8% and the Ki amounted to 8.96 nM. For `N#Cc1ccc(CN2CCOC[C@@H]2C(=O)N[C@@H]2CCCc3ccccc32)cc1` [Example 315], the inhibition at 0.1 µM was 96.1% and the Ki came to 6.63 nM.

On to `CC(C)CN1CCOC[C@@H]1C(=O)N[C@@H]1CCCc2ccccc21` [Example 316], for which 0.1 µM produced 91% inhibition and the Ki amounted to 10.9 nM. In the same order, the values of `CC(C)CN1CCOC[C@@H]1C(=O)N[C@H](C)c1ccc(Cl)cc1` [Example 317] are 91.1% and 8.72 nM.

As for `O=C(N[C@@H]1CCCc2ccccc21)[C@H]1COCCN1CC1CCCC1` [Example 318], at 0.1 µM the inhibition was 84.8% and the Ki stood at 13 nM. In the same order, the values of `O=C(NC1C2CC3CC(C2)CC1C3)[C@@H]1C[C@H](Oc2cccc(F)c2)CN1` (stereo partly drawn) [Example 319] are 100% and 1.7 nM.

Regarding `Cc1ccccc1O[C@@H]1CN[C@H](C(=O)NC2C3CC4CC(C3)CC2C4)C1` (stereo partly drawn) [Example 320], the inhibition at 0.1 µM worked out at 100% and the Ki was 5.5 nM. As for `O=C(NC1C2CC3CC(C2)CC1C3)[C@@H]1C[C@H](Oc2ccc(F)cc2)CN1` (stereo partly drawn) [Example 321], at 0.1 µM the inhibition was 100% and the Ki worked out at 1 nM. For the molecule `O=C(NCc1ccccc1)C1COCCN1CC1CCCCC1` (stereo not drawn) [Example 322], 0.1 µM produced 62.5% inhibition and the Ki worked out at 45 nM.

With `N#Cc1ccc(CN2CCC[C@@H]2C(=O)NCc2ccccc2)cc1` [Example 323], the inhibition at 0.1 µM amounted to 69.7% and the Ki came to 110 nM. As for `O=C(NCc1ccc(F)cc1)[C@H]1CCCN1CCC(F)(F)F` [Example 324], the inhibition at 0.1 µM came out at 69.2% and the Ki was determined as 69 nM.

The molecule `O=C(NCc1ccc(Cl)cc1)[C@H]1CCCN1Cc1ccc(Cl)cc1` [Example 325] came in with an inhibition at 0.1 µM of 35.7%. As to `Cc1ccc(CNC(=O)[C@H]2CCCN2CCC(F)(F)F)cc1` [Example 326], 0.1 µM produced 69.4% inhibition and the Ki was 69 nM. `O=C(NCc1c(F)cccc1F)[C@H]1COCCN1Cc1ccccc1` [Example 327]: the inhibition at 0.1 µM turned out to be 68.9% and the Ki amounted to 110 nM.

Consider `N#Cc1ccc(CN2CCC[C@@H]2C(=O)NCC2CCCCC2)cc1` [Example 328], for which the inhibition at 0.1 µM was determined as 100% and the Ki was 3.2 nM.

On to `CC(C)CN1CCC[C@@H]1C(=O)NCC1(O)CCCC1` [Example 330], for which the inhibition at 0.1 µM stood at 83.5% and the Ki was determined as 30 nM. Consider `CCCN1CCOC[C@@H]1C(=O)NC1CCCCC1` [Example 331], for which at 0.1 µM the inhibition was 86.6% and the Ki was 26 nM. Regarding `CC(C)CN1CCOC[C@@H]1C(=O)NC1CCCCC1` [Example 332], 0.1 µM produced 100% inhibition and the Ki amounted to 2.2 nM.

For `CC(C)CN1CCOC[C@@H]1C(=O)N(C)C1CCCCC1` [Example 333], the inhibition at 0.1 µM was 100% and the Ki was found to be 4 nM.

With `N#Cc1ccc(CN2CCOC[C@@H]2C(=O)NCC2CCCCC2)cc1` [Example 334], at 0.1 µM the inhibition was 100% and the Ki was determined as 2.4 nM. Consider `CCCN1CCOC[C@@H]1C(=O)NCC1CCCCC1` [Example 335], for which the inhibition at 0.1 µM came out at 100% and the Ki came out at 6.9 nM. Turning to `CC(C)CN1CCOC[C@@H]1C(=O)NCC1CCCCC1` [Example 336], testing at 0.1 µM gave an inhibition of 100% and the Ki stood at 1 nM.

With `CC(C)CN1C[C@H](O)C[C@@H]1C(=O)NCC1CCCCC1` [Example 337], the inhibition at 0.1 µM was 97.8% and the Ki was found to be 13 nM.

For the molecule `O=C(NC1C2CC3CC(C2)CC1C3)[C@@H]1C[C@H](Oc2ccccc2)CN1` (stereo partly drawn) [Example 338], testing at 0.1 µM gave an inhibition of 100% and the Ki amounted to 1 nM. For `O=C(NC1C2CC3CC(C2)CC1C3)[C@@H]1C[C@H](Oc2ccc(Cl)cc2)CN1` (stereo partly drawn) [Example 339] the same measures were 97.7% and 1 nM. Regarding `O=C(NC1C2CC3CC(C2)CC1C3)[C@@H]1NCC[C@H]1c1ccccc1` (stereo partly drawn) [Example 340], the inhibition at 0.1 µM came out at 100% and the Ki came out at 5.2 nM. Turning to `O=C(NC1C2CC3CC(C2)CC1C3)[C@@H]1C[C@H](Oc2ccccc2F)CN1` (stereo partly drawn) [Example 341], at 0.1 µM the inhibition was 100% and the Ki came to 0.7 nM. On to `O=C(NC1C2CC3CC(C2)CC1C3)[C@H]1NCC[C@@H]1C1CCCC1` (stereo partly drawn) [Example 342], for which at 0.1 µM the inhibition was 97.5% and the Ki turned out to be 9.9 nM. Take `Cc1ccc(O[C@@H]2CN[C@H](C(=O)NC3C4CC5CC(C4)CC3C5)C2)cn1` (stereo partly drawn) [Example 343]: the inhibition at 0.1 µM turned out to be 98.6% and the Ki was determined as 6.3 nM. As for `CC(C)[C@H]1CCN[C@@H]1C(=O)NC1C2CC3CC(C2)CC1C3` (stereo partly drawn) [Example 344], 0.1 µM produced 90.7% inhibition and the Ki amounted to 11 nM. Take `CC[C@H]1CCN[C@@H]1C(=O)NC1C2CC3CC(C2)CC1C3` (stereo partly drawn) [Example 345]: the inhibition at 0.1 µM came to 76.5% and the Ki was 27 nM.

With `O=C(NC1C2CC3CC(C2)CC1C3)[C@H]1CNC[C@H](c2ccccc2)C1` (stereo partly drawn) [Example 346], testing at 0.1 µM gave an inhibition of 90.2% and the Ki worked out at 18 nM. For `Cc1cc(C)cc(O[C@@H]2CN[C@H](C(=O)NC3C4CC5CC(C4)CC3C5)C2)c1` (stereo partly drawn) [Example 347], testing at 0.1 µM gave an inhibition of 96.6% and the Ki was 3.3 nM.

As for `Cc1cccc(O[C@@H]2CN[C@H](C(=O)NC3C4CC5CC(C4)CC3C5)C2)c1` (stereo partly drawn) [Example 348], the inhibition at 0.1 µM stood at 100% and the Ki came to 2.7 nM. With `Cc1cc(Cl)ccc1O[C@@H]1CN[C@H](C(=O)NC2C3CC4CC(C3)CC2C4)C1` (stereo partly drawn) [Example 349], 0.1 µM produced 100% inhibition and the Ki stood at 1.8 nM. For the molecule `CCc1ccccc1O[C@@H]1CN[C@H](C(=O)NC2C3CC4CC(C3)CC2C4)C1` (stereo partly drawn) [Example 350], the inhibition at 0.1 µM is 100% and the Ki amounted to 2.2 nM.

Turning to `Cc1cc(O[C@@H]2CN[C@H](C(=O)NC3C4CC5CC(C4)CC3C5)C2)ccc1F` (stereo partly drawn) [Example 351], the inhibition at 0.1 µM came out at 100% and the Ki amounted to 1 nM. For the molecule `O=C(NC1C2CC3CC(C2)CC1C3)[C@@H]1C[C@H](Oc2cc(F)ccc2F)CN1` (stereo partly drawn) [Example 352], the inhibition at 0.1 µM is 100% and the Ki turned out to be 1 nM.

Regarding `COc1cc(F)ccc1O[C@@H]1CN[C@H](C(=O)NC2C3CC4CC(C3)CC2C4)C1` (stereo partly drawn) [Example 353], at 0.1 µM the inhibition was 100% and the Ki was found to be 4.9 nM. In the same order, the values of `CCc1ccc(O[C@@H]2CN[C@H](C(=O)NC3C4CC5CC(C4)CC3C5)C2)c(OC)c1` (stereo partly drawn) [Example 354] are 100% and 2.1 nM. Turning to `O=C(NC1C2CC3CC(C2)CC1C3)[C@@H]1C[C@H](Oc2ccc(F)c(F)c2F)CN1` (stereo partly drawn) [Example 355], at 0.1 µM the inhibition was 100% and the Ki was 1 nM. In the same order, the values of `Cc1cc(F)ccc1O[C@@H]1CN[C@H](C(=O)NC2C3CC4CC(C3)CC2C4)C1` (stereo partly drawn) [Example 356] are 100% and 1.4 nM. On to `O=C(NC1C2CC3CC(C2)CC1C3)[C@@H]1C[C@H](Oc2cccc(C(F)(F)F)c2)CN1` (stereo partly drawn) [Example 357], for which the inhibition at 0.1 µM worked out at 100% and the Ki worked out at 2.1 nM. Turning to `CCOc1cccc(O[C@@H]2CN[C@H](C(=O)NC3C4CC5CC(C4)CC3C5)C2)c1` (stereo partly drawn) [Example 358], the inhibition at 0.1 µM worked out at 100% and the Ki came to 4.5 nM.

`Cc1ncccc1O[C@@H]1CN[C@H](C(=O)NC2C3CC4CC(C3)CC2C4)C1` (stereo partly drawn) [Example 359]: the inhibition at 0.1 µM was 80.7% and the Ki was determined as 44 nM. Consider `O=C(NC1C2CC3CC(C2)CC1C3)[C@@H]1C[C@H](Oc2ccccc2Cl)CN1` (stereo partly drawn) [Example 360], for which the inhibition at 0.1 µM stood at 100% and the Ki was determined as 1.4 nM. In the case of `CCOc1ccccc1O[C@@H]1CN[C@H](C(=O)NC2C3CC4CC(C3)CC2C4)C1` (stereo partly drawn) [Example 361], the inhibition at 0.1 µM turned out to be 100% and the Ki was 1.9 nM.

Consider `O=C(NC1C2CC3CC(C2)CC1C3)[C@@H]1C[C@H](Oc2cc(F)c(F)c(F)c2)CN1` (stereo partly drawn) [Example 362], for which testing at 0.1 µM gave an inhibition of 100% and the Ki was 1.1 nM.

Turning to `O=C(NC1C2CC3CC(C2)CC1C3)[C@@H]1C[C@H](Oc2c(F)cc(F)cc2F)CN1` (stereo partly drawn) [Example 363], the inhibition at 0.1 µM was found to be 100% and the Ki was 1 nM. For the molecule `CC(C)Oc1ccccc1O[C@@H]1CN[C@H](C(=O)NC2C3CC4CC(C3)CC2C4)C1` (stereo partly drawn) [Example 364], the inhibition at 0.1 µM was found to be 100% and the Ki turned out to be 4.6 nM. In the case of `O=C(NC1C2CC3CC(C2)CC1C3)[C@@H]1C[C@H](Oc2ccc(Cl)c(F)c2)CN1` (stereo partly drawn) [Example 365], at 0.1 µM the inhibition was 100% and the Ki is 1 nM.
